Laboratory results published in ChEMBL document CHEMBL4020814, “Synthesis, Binding Mode, and Antihyperglycemic Activity of Potent and Selective (5-Imidazol-2-yl-4-phenylpyrimidin-2-yl)[2-(2-pyridylamino)ethyl]amine Inhibitors of Glycogen Synthase Kinase 3” (J Med Chem, 2017).

Experiment: Inhibition of human GSK3 using biotin-CREB peptide substrate after 1 hr by scintillation counting method

Compound | IC50 [nM]
O=[N+]([O-])c1ccc(NCCNc2ncc(-n3ccnc3)c(-c3ccc(N4CCNCC4)cc3)n2)nc1 | 166
COc1cccc(-c2nc(NCCNc3ccc([N+](=O)[O-])cn3)ncc2-n2ccnc2)c1 | 347
CN1CCN(C)C(CN(CCNc2ccc([N+](=O)[O-])cn2)c2ncc(-n3ccnc3)c(-c3ccc(Cl)cc3Cl)n2)C1 (centres undefined) | 121
CC(C)(C)OC(=O)c1cnc(NCCNc2ccc([N+](=O)[O-])cn2)nc1-c1ccc(C#N)cc1 | 25
CCOC(=O)C1=C(c2ccncc2)N=C(NCCNc2ccc([N+](=O)[O-])cn2)NC1c1ccc(C(N)=O)cc1 (centres undefined) | 3700
O=[N+]([O-])c1ccc(NCCNc2ncc(-n3ccnc3)c(-c3ccc(-n4ccnc4)cc3)n2)nc1 | 124
CCOC(=O)c1c(-c2ccncc2)nc(NCCNc2ccc([N+](=O)[O-])cn2)nc1-c1ccc(C(N)=O)cc1 | 140
N#Cc1ccc(-c2nc(NCCNc3ccc([N+](=O)[O-])cn3)ncc2C(=O)NCc2ccccc2)cc1 | 75
CN1CCN(c2ccc(-c3nc(NCCNc4ccc([N+](=O)[O-])cn4)ncc3-n3ccnc3)cc2)CC1 | 1120
O=[N+]([O-])c1ccc(NCCN(CCc2ccccn2)c2ncc(-n3ccnc3)c(-c3ccc(Cl)cc3Cl)n2)nc1 | 113
N#Cc1ccc(-c2nc(NCCNc3ccc([N+](=O)[O-])cn3)ncc2C(=O)NCc2ccncc2)cc1 | 47
N#Cc1ccc(-c2nc(NCCNc3ccc([N+](=O)[O-])cn3)ncc2C(=O)N2CCOCC2)cc1 | 161
CCOC(=O)C1=C(CC)N=C(NCCNc2ccc([N+](=O)[O-])cn2)NC1c1ccc(C(N)=O)cc1 (centres undefined) | 3400
N#Cc1ccc(-c2nc(NCCNc3ccc([N+](=O)[O-])cn3)ncc2C(=O)OCc2ccccc2)cc1 | 190
N#Cc1ccc(-c2nc(NCCNc3ccc([N+](=O)[O-])cn3)ncc2C(=O)NCCN)cc1 | 153
O=[N+]([O-])c1ccc(NCCNc2ncc(-n3ccnc3)c(-c3ccc(F)cc3)n2)nc1 | 200
CCOC(=O)C1=C(c2ccc([N+](=O)[O-])cc2)N=C(NCCNc2ccc([N+](=O)[O-])cn2)NC1c1ccc(C(N)=O)cc1 (centres undefined) | 2000
CC(C)(C)OC(=O)N1CCN(c2ccc(-c3nc(NCCNc4ccc([N+](=O)[O-])cn4)ncc3-n3ccnc3)cc2)CC1 | 1930

Next, values leading:

IC50 [nM] | Compound
81 | COc1nc(NCCNc2ncc(-n3ccnc3)c(-c3ccc(Cl)cc3Cl)n2)ccc1[N+](=O)[O-]
5950 | CC(=O)c1ccc(NCCNc2ncc(-n3ccnc3)c(-c3ccc(Cl)cc3Cl)n2)nc1
200 | N#Cc1ccnc(NCCNc2ncc(-n3ccnc3)c(-c3ccc(Cl)cc3Cl)n2)c1
4870 | COc1ccc(OC)c(-c2nc(NCCNc3ccc([N+](=O)[O-])cn3)ncc2-n2ccnc2)c1
3370 | Cc1cc([N+](=O)[O-])cnc1NCCNc1ncc(-n2ccnc2)c(-c2ccc(Cl)cc2Cl)n1
3650 | CCOC(=O)c1ccc(NCCNc2ncc(-n3ccnc3)c(-c3ccc(Cl)cc3Cl)n2)nc1
> 10000 | Cc1cc(NCCNc2ncc(-n3ccnc3)c(-c3ccc(Cl)cc3Cl)n2)nc(N)n1
1000 | CN(C)c1nc(NCCNc2ncc(-n3ccnc3)c(-c3ccc(Cl)cc3Cl)n2)ccc1[N+](=O)[O-]
1000 | O=[N+]([O-])c1ccc(NCCNc2ncc(-n3ccnc3)c(-c3ccc(Cl)cc3Cl)n2)nc1O
175 | COCCN(CCNc1ccc([N+](=O)[O-])cn1)c1ncc(-n2ccnc2)c(-c2ccc(Cl)cc2Cl)n1
381 | FC(F)(F)c1ccnc(NCCNc2ncc(-n3ccnc3)c(-c3ccc(Cl)cc3Cl)n2)n1
> 10000 | Clc1ccc(-c2nc(NCCNc3ncccn3)ncc2-n2ccnc2)c(Cl)c1
576 | CNc1nc(NCCNc2ncc(-n3ccnc3)c(-c3ccc(Cl)cc3Cl)n2)ccc1[N+](=O)[O-]
2830 | O=[N+]([O-])c1ccc(OCCNc2ncc(-n3ccnc3)c(-c3ccc(Cl)cc3Cl)n2)nc1
646 | O=[N+]([O-])c1ccc(NCCNc2ncc(-n3ccnc3)c(-c3ccc(Cl)c(Cl)c3)n2)nc1
884 | COc1ccccc1-c1nc(NCCNc2ccc([N+](=O)[O-])cn2)ncc1-n1ccnc1
